The data set relates to NSC-34 cells. The data set can be described thus: Caspase-3 assay (apoptotic activity) in NSC-34 cells. In kind it is cell-based. The conditions noted are these: for DRP-induced apoptotic activity: DRP 0.01-3 μM, 24 h, compared to DMSO-treated controls. An excerpt:
Caspase-3/CPP32 Assay: The caspase-3 assay is a fluorometric assay that measures apoptotic cell death. Apoptosis is a form of “programmed” cell death, in which a certain family of proteins inside the cell triggers a cascade of chemical reactions that result in the cell killing itself. One family of proteins involved in this process is the caspase protein family. Of the caspase proteins, caspase-2, 8, 9, and 10 are known as “initiators,” those that trigger the death cascade, and caspase-3, 6, and 7 are known as “executioners,” which carry out the actual killing of the cell. In a caspase-3 assay, cells treated with test compounds are lysed, and a substrate known as DEVD-AFC is added to the lysate. If active caspase-3 enzyme is present in the lysate, it will cleave AFC from the DEVD-AFC substrate, resulting in a fluorescent signal that can be quantified using a fluorescence microtiter plate reader. Thus, the apoptotic activity of cells treated with test compounds can be quantified. Greater fluorescence readings correspond to more apoptotic cell death.
Cells were plated in culture medium in 2 96-well plates at a density of 3.7×10^4 cells per well, and incubated overnight at 37° C., 5% CO2. The following day, immediately prior to addition of test compounds, existing culture medium was removed and replaced with staggered volumes of culture medium as in Example 1. A 10 mM stock of MS023 was thawed to room temperature and diluted as in Example 1. A 10 mM stock of GR15 (SEQ ID NO: 1) and a 10 mM stock of PR15 (SEQ ID NO: 2) were equilibrated to room temperature and diluted in warm culture medium to achieve a final concentration of 300 nM in wells.
The following conditions were plated in triplicate. Samples were surrounded by border wells on the outside of the plate filled with sterile Phosphate-buffered saline to prevent evaporation of volume in experimental wells during incubation; • Background (Culture medium only) • Untreated/“Cells Only” (Cells in culture medium) • DMSO Control (Cells treated only with the amount of DMSO that GR- and PR-treated cells were exposed to) • GR Only (Cells treated only with 300 nM GR15) (SEQ ID NO: 1) • Cells treated with […] GR15 (SEQ ID NO: 1) and one of the following doses of MS023: 60 μM, 30 μM, 10 μM, 3 μM, 1 μM. • PR Only (Cells treated only with 300 nM PR15) (SEQ ID NO: 2) • Cells treated with 300 nM PR15 (SEQ ID NO: 2) and one of the following doses of MS023: 60 μM, 30 μM, 10 μM, 3 μM, 1 μM. • Cells treated with only one of the following doses of MS023: 60 μM, 30 μM, 10 μM, 3 μM, 1 μM. • Positive controls (Cells treated with either 5 or 16 μM PAC-1 Caspase-3 activator)
Plates were incubated for 24 h at 37° C., 5% CO2. Cells were tested and data were analyzed using the procedure detailed in Caspase-3 assay kit instructions.
Cells were plated in culture medium in 2 96-well plates at a density of 3.7×10^4 cells per well, and incubated overnight at 37° C., 5% CO2. The following day, immediately prior to addition of test compounds, existing culture medium was removed and replaced with staggered volumes of culture medium as in Example 1. A 10 mM stock of MS023 was thawed to room temperature and diluted in warm culture medium to achieve final concentrations of 3, 1, 0.3, 0.1, 0.03, and 0.01 μM in plate. A 10 mM stock of GR15 (SEQ ID NO: 1) and a 10 mM stock of PR15 (SEQ ID NO: 2) were equilibrated to room temperature and diluted in warm culture medium to achieve a final concentration of 3 μM in wells.
The following conditions were plated in triplicate. […]

No end group written: not given here.

Regarding `CC(C)Oc1ccc(-c2c[nH]cc2CN(C)CCN)cc1` [MS023], the “dose dependence of abrogation of GR-induced apoptotic activity” value was “dose-dependently” (300 nM GR15, 24 h, MS023 1-60 μM) and “dose-dependently abrogated” (3 μM GR15, 24 h, MS023 0.01-3 μM). Also, the “abrogation of GR-induced apoptotic activity” value (300 nM GR15, 24 h, doses 3 and 1 μM) is on record as “fully abrogated”; the “abrogation of GR-induced apoptotic activity” value (300 nM GR15, 24 h, doses 60, 30 and 10 μM) is reported as “partially abrogated”; the “abrogation of GR-induced apoptotic activity” value (3 μM GR15, 24 h, all doses (0.01-3 μM)) is listed as “partially abrogated”; the “abrogation of GR-induced apoptotic activity” value (3 μM GR15, 24 h, dose 3 μM) is “fully abrogated”. In addition, the “dose dependence of abrogation of PR-induced apoptotic activity” value is given as “dose-dependently” (300 nM PR15, 24 h, MS023 1-60 μM) and “dose-dependently abrogated” (3 μM PR15, 24 h, MS023 0.01-3 μM). In addition, the “abrogation of PR-induced apoptotic activity” value runs as follows: (300 nM PR15, 24 h, all doses (1-60 μM)) “fully abrogated”; (3 μM PR15, 24 h, all doses (0.01-3 μM)) “partially abrogated”; (3 μM PR15, 24 h, dose 3 μM) “fully abrogated”.

On to PRPRPRPRPRPRPRPRPRPRPRPRPRPRPR [PR15], for which the DRP-induced apoptotic activity result is listed as “producing the most significant amount of apoptotic activity”.

Regarding GRGRGRGRGRGRGRGRGRGRGRGRGRGRGR [GR15], the DRP-induced apoptotic activity result is on record as “producing the most significant amount of apoptotic activity”.

The values are drawn from patent publication US12318365B2, “Inhibition of dipeptide repeat proteins” (ALS Therapy Development Institute, priority 2019, dated 2025).
